PMC8808171, “Nonselective TRPC channel inhibition and suppression of aminoglycoside-induced premature termination codon readthrough by the small molecule AC1903” (The Journal of Biological Chemistry, 2022)

Tested on: JEB01 keratinocytes (COL17A1 R688X)
Test: G418-induced PTC readthrough (Collagen XVII, Western blot) in JEB01 keratinocytes
Assay type: cell-based, human
Conditions: pretreatment 150 μM AC1903, increasing concentrations of G418 (Fig. 2E)
Method: Figure 2 Effect of AC1903 on PTC readthrough and G418 trafficking.A and B, DMS-114 (A) or TC-71 (B) cells were pretreated with indicated concentrations of AC1903 for 3 h followed by exposure to 400 μg/ml G418. After 3 h medium was replenished and at 24 h cell lysates were prepared and p53 levels were measured. C and E, DMS-114 (C) or JEB01 (E) cells were either left untreated or pretreated with 150 μM AC1903 for 3 h followed by exposure to indicated concentrations of G418 for another 3 h. At 24 h cell lysates were prepared and p53 (C) or Collagen XVII (E) levels were measured. In panels A–C, protein levels were measured by automated capillary electrophoresis Western analysis (using vinculin as loading control). In panel E, protein levels were measured by Western blot (using beta-actin as loading control). […] D, total intracellular levels of G418 were measured in the same lysates as in (C) (n = 5; data normalized to the highest response in each experiment; bars represent mean ± SD). F, total intracellular levels of G418 were measured in the same lysates as in (E) (n = 2; data normalized to the highest response in each experiment; bars represent mean ± SD). ∗ indicates statistically significant difference between samples according to one-way ANOVA (p < 0.05). […]

c1ccc(Cn2c(NCc3ccco3)nc3ccccc32)cc1 [AC1903]
decline of full-length Collagen XVII: 45–80%
